From patent US20120108632A1, “[…] INHIBITORS FOR OCULAR HYPERTENSION CONTROL AND THE TREATMENT OF GLAUCOMA” (ALCON RESEARCH, LTD., priority 2006, published 2012)

Experiments:
[1] = target: GGTase (Homo sapiens, UniProt P53609); details: cited from earlier work
[2] = tested on: CTGF gene expression in cultured human trabecular meshwork cells; experiment: Basal and TGFβ2-induced CTGF gene expression by QRT-PCR in TM cells; assay type: cell-based; details: for measured CTGF levels (CTGF/18S cDNA) compared to TGFβ2-treated cells: TM cells treated with TGFβ2 and inhibitor, versus TGFβ2 alone, FIGS. 1 and 2
Excerpt: (§1) Total RNA was isolated from TM cells using Qiagen RNeasy 96 system according to the manufacturer's instructions (Qiagen).
Differential expression of CTGF and PAI-1 were verified by quantitative real-time RT-PCR (QRT-PCR) using an ABI Prism® 7700 Sequence Detection System (Applied Biosystems) essentially as previously described (Shepard et al., IOVS, 2001, Vol. 42:3173). Primers for CTGF amplification were designed using Primer Express software (Applied Biosystems) to anneal to adjacent exons of Genbank accession #NM_001901.1 ([…] (SEQ ID NO: 1), nts 1667-1689 and […] (SEQ ID NO: 2), nts 1723-1742, with probe sequence 6FAM-[…]-TAMRA (SEQ ID NO: 3)) and generate a 76-bp amplicon. Primers for PAI-1 amplification were purchased from ABI (Hs00167155 ml) and correspond to Genbank accession #NM_000602.1. Amplification of CTGF or PAI-1 was normalized to 18S ribosomal RNA expression using primers designed to the 18S rRNA gene (GenBank accession #X03205 […] (SEQ ID NO: 4), nts 1680-1700 and […] (SEQ ID NO: 5), nts 1730-1749, with probe sequence 6FAM-[…]-MGBNFQ (SEQ ID NO: 6)) which generates a 69-bp amplicon. CTGF or PAI-1 QRT-PCR was performed in multiplex with 18S primer/probe sets in a 50 ul final volume consisting of 40 nM 18S or 900 nM CTGF or PAI-1 primers; 100 nM 18S probe or 100 nM CTGF or 250 nM PAI-1 probe; 5 ul RNA; 1× Multiscribe and RNase Inhibitor Mix (ABI); and 1× TaqMan® Universal Mix (ABI). Thermal cycling conditions consisted of 48° C., 30 min, 95° C. 10 min followed by 40 cycles at 95° C., 15 sec, 60° C., 1 min. […] Quantification of relative RNA concentrations was done using the delta delta Ct method as described in PE Biosystems User Bulletin #2. Levels of amplified products were expressed as mean±SEM of quadruplicate QRT-PCR assays. […]
(§2) In this example, the effectiveness of GGTase and FTase inhibitors on CTGF gene expression in cultured human trabecular meshwork cells was studied. In this experiment, the CTGF/18S cDNA levels were measured and compared by QRT-PCR according to the protocol of Example 1.

[3] = tested on: PAI-1 gene expression in TM cell lines; experiment: TGFβ2-induced PAI-1 gene expression by QRT-PCR in TM cells; assay type: cell-based, human; details: TM cell lines treated with TGFβ2 and inhibitor, versus TGFβ2 alone; FIG. 3
Excerpt: as §1
Differential expression of CTGF and PAI-1 were verified by quantitative real-time RT-PCR (QRT-PCR) using an ABI Prism® 7700 Sequence Detection System (Applied Biosystems) essentially as previously described (Shepard et al., IOVS, 2001, Vol. 42:3173). Primers for CTGF amplification were designed using Primer Express software (Applied Biosystems) to anneal to adjacent exons of Genbank accession #NM_001901.1 ([…] (SEQ ID NO: 1), nts 1667-1689 and […] (SEQ ID NO: 2), nts 1723-1742, with probe sequence 6FAM-[…]-TAMRA (SEQ ID NO: 3)) and generate a 76-bp amplicon. Primers for PAI-1 amplification were purchased from ABI (Hs00167155 ml) and correspond to Genbank accession #NM_000602.1. […] Quantification of relative RNA concentrations was done using the delta delta Ct method as described in PE Biosystems User Bulletin #2. Levels of amplified products were expressed as mean±SEM of quadruplicate QRT-PCR assays. […]
as §2

[4] = tested on: lactate dehydrogenase (LDH) release into culture media; experiment: CytoTox-ONE Homogenous Membrane Integrity Assay (LDH release); assay type: cell-based; details: conclusion from LDH release; FIG. 4
[5] = target: Ftase (Homo sapiens, UniProt P49356); details: cited from earlier work

Row | SMILES | IC50 [1] | measured CTGF levels (CTGF/18S cDNA) compared to TGFβ2-treated cells [2] | measured PAI-1 compared to TGFβ2-treated cells [3] | cytotoxicity [4] | IC50 [5] | measured CTGF levels (CTGF/18S cDNA) compared to vehicle alone ([2]; TM cell cultures treated with TGFβ2 and inhibitor, versus vehicle alone, FIG. 1)
1 | CSCC[C@H](NC(=O)c1ccc(NC[C@@H](N)CS)cc1-c1ccccc1)C(=O)O [FTI-276] | 0.05 µM |  |  |  |  | 
2 | COC(=O)[C@H](CCSC)NC(=O)c1ccc(NC[C@@H](N)CS)cc1-c1ccccc1 [FTI-277] |  | produces a drop in measured CTGF levels | able to produce drops in measured PAI-1 | relatively low cytotoxicity | 0.1 µM | 
3 | CSCC[C@H](NC(=O)c1ccc(NC(=O)[C@@H](N)CS)cc1)C(=O)O [Ftase Inhibitor II] |  |  |  |  | 0.05 µM | 
4 | CSCC[C@H](NC(=O)[C@H](Cc1ccccc1)NC[C@@H](NC[C@@H](N)CS)C(C)C)C(=O)O [Ftase Inhibitor I] | 0.79 µM |  |  |  | 0.021 µM | 
5 | COC(=O)[C@H](CC(C)C)NC(=O)c1ccc(NC[C@@H](N)CS)cc1-c1ccccc1 [GGTI-286] | 2 µM |  |  |  |  | 
6 | CC(C)C[C@H](NC(=O)c1ccc(NC[C@@H](N)CS)cc1-c1cccc2ccccc12)C(=O)O [GGTI-297] | 0.05 µM |  |  |  | 0.2 µM | 
7 | COC(=O)[C@H](CC(C)C)NC(=O)c1ccc(NC[C@@H](N)CS)cc1-c1cccc2ccccc12 [GGTI-298] | 3 µM |  |  |  |  | 
8 | CC(C)C[C@H](NC(=O)c1ccc(NCc2cnc[nH]2)cc1-c1cccc2ccccc12)C(=O)O [GGTI-2133] | 0.038 µM | dramatically reduced CTGF levels | able to produce drops in measured PAI-1 | relatively low cytotoxicity | 5.4 µM | lower than with vehicle alone
9 | COC(=O)[C@H](CC(C)C)NC(=O)c1ccc(NCc2cnc[nH]2)cc1-c1cccc2ccccc12 [GGTI-2147] | 0.5 µM |  |  |  | 30 µM | 
